Values of other authors in patent publication US20230357095A1, “HYDROGEN NANOBUBBLES INFUSED WATER FOR […] IRRIGATION” (L'Air Liquide, Societe Anonyme pour l'Etude et …, priority 2020, published 2023).
Read-outs that look alike come from different tables or passages of the source.

Conditions: P=1 bar

[HH] [hydrogen]
Saturation concentration of hydrogen in pure water (T=273.1 K): 1.95 mg/L | Saturation concentration of hydrogen in pure water (T=298.1 K): 1.60 mg/L
